Laboratory results as given in publication PMC12481576, “Barbituric Acid Derivatives as Covalent Inhibitors of Leishmania braziliensis Dihydroorotate Dehydrogenase” (Journal of Medicinal Chemistry, 2025).
Values after ≈ are worked out from the molar mass of the structure shown.

Tests used:
[1] = Kinetic solubility assay in PBS pH 7.4; assay type: physicochemical; conditions: kinetic from dmso stock, 1% DMSO; for solubility kinetic at 2 h: 25 °C, pH 7.4, aqueous buffer, PBS pH 7.4, 200 μM test conc, 2 h at 25 °C; for solubility at 2 h: aqueous buffer, PBS pH 7.4, 200 µM, 2 hours at 25°C
Experimental: The plate was incubated for 2 h at 25 °C. The precipitates on the incubation plate were removed by filtration and the filtrates were quantified by LC-MS/MS. Calibration curves were prepared for each compound by using 5–6 points. Samples were analyzed by UV–vis.

[2] = test system: Leishmania braziliensis promastigotes; assay: Leishmanicidal activity, promastigote growth (SYBR Green, 72 h); assay type: cell-based, Leishmania (V.) braziliensis (MHOM/BR/1975/M2904); conditions: L. braziliensis promastigotes, max 200 μM
Method in brief: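 Cultures at 4 × 10^6 parasites/mL were exposed 72 h to serially decreasing compound levels, top 200 μM, with final DMSO 0.5% and medium-only control.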

LbDHODH = LbDHODH (Leishmania braziliensis, UniProt E9AI53); assay: Kinact/KI determination from LbDHODH progress curves (kobs vs inhibitor concentration); assay type: biochemical; conditions: for kinact/KI: slope of kobs vs inhibitor concentration
Chain of LbDHODH (E9AI53 entry or part of it): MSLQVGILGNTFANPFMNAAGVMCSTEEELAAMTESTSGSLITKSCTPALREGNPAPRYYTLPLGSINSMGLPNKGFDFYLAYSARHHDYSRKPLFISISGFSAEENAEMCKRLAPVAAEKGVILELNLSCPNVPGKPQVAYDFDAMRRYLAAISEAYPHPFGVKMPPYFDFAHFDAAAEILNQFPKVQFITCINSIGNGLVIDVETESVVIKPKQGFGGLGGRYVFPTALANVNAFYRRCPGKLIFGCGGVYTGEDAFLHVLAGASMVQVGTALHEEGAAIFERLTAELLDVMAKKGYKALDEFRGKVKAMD
Excerpt: The Kinact/Ki ratio is a key parameter for evaluating the potency of covalent inhibitors, as it quantitatively measures both their reactivity and affinity for the target enzyme. This parameter integrates two crucial aspects: KI, which reflects the inhibitor’s binding affinity, and Kinact, which describes the rate at which the covalent bond is formed. […] Therefore, this ratio is essential for ranking covalent inhibitors, optimizing their potency, and guiding structure-based drug design.
The experiments were performed in a 96-well microplate reader (SpectraMax Plus 384, Molecular Devices, USA), containing the […] of the buffer 60 mM DCIP, 50 mM Tris pH 8.15, 150 mM KCl, 0.1% Triton X-100, 50 μM DHO and 10 μM of LbDHODH at 165 nM. The reaction was monitored every 3 s at 610 nm over a period of 60 s, in triplicate, for the control and each concentration of the inhibitor. All assays were performed without incubation (0h) and with 4-h preincubation of the inhibitor with LbDHODH, using 5% DMSO (v/v) as control. […] To determine the IC50 values, the activity percentage data were fitted as a function of the concentration logarithm by nonlinear regression analysis (variable hillslope) using Prism 9.0 software (GraphPad Software, USA). […] The resulting kobs values were plotted as a function of inhibitor concentration, and the data in the initial linear region was fit to determine the slope, which is kinact/KI. All regressions were performed with GraphPad Prism 9.

THP-1 cells = assay: Cell viability / cytotoxicity assay (PrestoBlue, 72 h); assay type: cell-based; conditions: THP-1 cell line, 72 h, max 200 μM
Method in brief: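 Viability was measured with PrestoBlue fluorescence (560/590 nm, 2 h) after 72 h compound exposure at 37 °C. Test concentrations descended from 200 μM. The THP-1 monocytes had first been differentiated with 150 ng/mL phorbol myristate acetate for 48 h, then rested 24 h.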

| SMILES | solubility kinetic at 2 h [1] [µM] | solubility at 2 h [1] [µg/mL] | EC50 ([2]; Leishmania braziliensis) [µM] | Kobs (LbDHODH; inhibitor 0.18 µM) [s⁻¹] | Kobs (LbDHODH; inhibitor 0.390625 µM) [s⁻¹] | Kobs (LbDHODH; inhibitor 0.78125 µM) [s⁻¹] | Kobs (LbDHODH; inhibitor 1.5625 µM) [s⁻¹] | Kobs (LbDHODH; inhibitor 3.125 µM) [s⁻¹] | Kobs (LbDHODH; inhibitor 6.25 µM) [s⁻¹] | Kobs (LbDHODH; inhibitor 12.5 µM) [s⁻¹] | Kobs (LbDHODH; inhibitor 25 µM) [s⁻¹] | Kobs (LbDHODH; inhibitor 100 µM) [s⁻¹] | Kobs (LbDHODH; inhibitor 200 µM) [s⁻¹] | kinact/KI (LbDHODH) [M⁻¹ s⁻¹] | EC50 [2] [µM] | Kobs (LbDHODH; inhibitor 0.0975 µM) [s⁻¹] | Kobs (LbDHODH; inhibitor 0.195 µM) [s⁻¹] | CC50 (THP-1 cells) |
| --- | --- | --- | --- | --- | --- | --- | --- | --- | --- | --- | --- | --- | --- | --- | --- | --- | --- | --- |
| COc1cc(C=C2C(=O)NC(=O)NC2=O)ccc1O [2c, 5-(4-Hydroxy-3-methoxybenzylidene)pyrimidine-2,4,6(1H,3H,5H)-trione] | 195 (≈ 51 µg/mL) | 51 (≈ 194 µM) | > 200 |  |  |  |  |  |  |  |  |  |  |  |  |  |  |  |
| O=C1NC(=O)C(=Cc2ccc(O)c([N+](=O)[O-])c2)C(=O)N1 [2d, 5-(4-Hydroxy-3-nitrobenzylidene)pyrimidine-2,4,6(1H,3H,5H)-trione] | 190 (≈ 52.7 µg/mL) | 52.7 (≈ 190 µM) | 152 ± 28 | 0.003357 ± 0.002 | 0.003416 ± 0.002 | 0.003424 ± 0.002 | 0.003613 ± 0.002 | 0.0038 ± 0.002 | 0.004522 ± 0.002 | 0.004748 ± 0.002 | 0.005571 ± 0.002 | 0.01122 ± 0.001 | 0.01796 ± 0.003 | 73 |  |  |  |  |
| O=C1NC(=O)C(=Cc2ccc(N3CCOCC3)cc2[N+](=O)[O-])C(=O)N1 [2e, 5-(4-Morpholino-2-nitrobenzylidene)pyrimidine-2,4,6(1H,3H,5H)-trione] | 178 (≈ 61.8 µg/mL) | 53.4 (≈ 154 µM) | 17 ± 11 |  |  |  |  |  |  |  |  |  |  |  |  |  |  |  |
| O=C1NC(=O)C(=Cc2ccc(-c3ccccc3F)[nH]2)C(=O)N1 [2h, 5-((5-(2-Fluorophenyl)-1H-pyrrol-2-yl)methylene)pyrimidine-2,4,6(1H,3H,5H)-trione] | 4.63 (≈ 1.39 µg/mL) | 1.6 (≈ 5.35 µM) | 5.4 to 23 |  |  |  |  |  |  |  |  |  |  |  | 5 ± 2 |  |  |  |
| O=C1NC(=O)C(=C/C=C/c2ccccc2)C(=O)N1 [2i, (E)-5-(3-Phenylallylidene)pyrimidine-2,4,6(1H,3H,5H)-trione] | 41.4 (≈ 10 µg/mL) | 10 (≈ 41.3 µM) | 11 ± 5 |  | 0.003028 ± 0.002 | 0.003309 ± 0.002 | 0.003849 ± 0.002 | 0.005668 ± 0.003 | 0.007929 ± 0.002 | 0.02055 ± 0.002 | 0.0045 ± 0.002 |  |  | 767 | 10.5 ± 3.5 | 0.002849 ± 0.002 | 0.002994 ± 0.002 | no cytotoxicity |
